Experimental data from publication PMC10721329, “Quisinostat is a brain-penetrant radiosensitizer in glioblastoma” (JCI Insight, 2023).
Values joined by “and” are separate entries in the source; they are usually repeats but may differ in a detail not shown here. Identical values can stand only once.

Experiment: Stability in mouse brain homogenate (perfused, non-perfused) at 37°C
Format: in vitro ADME
Conditions: 100 nM; for [QST], % of control: mouse brain homogenate, 37 C; for [QST], % of control / raw response (Data Point): replicates; for %stability ([QST], % of control, Mean) / raw response, Mean / raw response (Data Point): mouse brain, 37C
Description: Hydroxamic acid–based compounds have been reported to display poor stability and high plasma clearance due to the presence of arylesterases and carboxylesterases in rodent blood ([34]). Therefore, we measured the stability of QST in mouse plasma and brain to determine whether drug degradation occurred during our sample preparations and equilibrium dialyses for the determination of unbound drug level (performed at 37°C). […] QST degradation was also observed in mouse brain homogenate (Figure 6B). However, perfusion of mice before brain collection prevented rapid drug degradation in the brain matrix. […] Degradation of QST can also be constrained if plasma and brain samples are processed at 4°C (Supplemental Figure 4A). All subsequent sample preparations were therefore performed on ice-cold baths to avoid degradation of QST in our PK analyses. […] The observed stability is probably due to the absence of esterases in human matrices, which are responsible for degradation of QST ([34]). Because we employed QST in several in vitro studies (Figures 1–4), the stability of the molecule was also tested in the cell media used to culture GSCs (neurobasal medium; see Methods).
Stability Study in Mouse Plasma, Mouse Brain, Human Plasma, Human Brain, and Neural […]
The stability of QST was determined in BALB/c mouse plasma, male nude athymic perfused and nonperfused mouse brain homogenate (1:9 w/v of PBS; pH 7.4), human brain (obtained from VRL Eurofins) homogenate (1:4 w/v of PBS; pH 7.4), pooled human plasma (Innovative Research), and neurobasal media. QST stock solutions (1 mM) were prepared in acetonitrile, subsequently diluted in a 40% methanol mixture, and added t o the matrices to make final concentrations of 100 nM or 10 nM. Then 50 or 30 µL of either plasma or brain homogenate containing QST were aliquoted into 1.5-mL microcentrifuge tubes (Eppendorf) and were incubated at either 4 °C or 37 °C for 0, 2, 4, 6, 12, or 24 hours (n = 3 at each time point). […]
Plasma and brain […]
homogenate samples were stored at −80 °C until LC-MS/MS analysis. […]

## Cn1cc(CNCC2CCN(c3ncc(C(=O)NO)cn3)CC2)c2ccccc21 [QST, quisinostat]
Non-Perfused, 0 hours
  [QST], % of control: 99.9% and 101.4% and 98.8%
Non-Perfused, 2 hours
  [QST], % of control: 90.9% and 101.4% and 87.2%
Non-Perfused, 6 hours
  [QST], % of control: 71.4% and 72.9% and 80.4%
Non-Perfused, 24 hours
  [QST], % of control: 46.8% and 49% and 47.5%
Perfused, 0 hours
  [QST], % of control: 103.7% and 102.4% and 93.9%
Perfused, 2 hours
  [QST], % of control: 98.2% and 99.9%
Perfused, 6 hours
  [QST], % of control: 98.2% and 97.3%
Perfused, 24 hours
  [QST], % of control: 85.9% (2×) and 82.9%
Non-perfused, 0 hrs
  %stability ([QST], % of control, Mean): 100.0%
  raw response, Mean: 267333
  raw response (Data Point): 267000 and 271000 and 264000
Non-perfused, 2 hrs
  %stability ([QST], % of control, Mean): 93.1%
  raw response, Mean: 249000
  raw response (Data Point): 243000 and 271000 and 233000
Non-perfused, 6 hrs
  %stability ([QST], % of control, Mean): 74.9%
  raw response, Mean: 200333
  raw response (Data Point): 191000 and 195000 and 215000
Non-perfused, 24 hrs
  %stability ([QST], % of control, Mean): 47.8%
  raw response, Mean: 127667
  raw response (Data Point): 125000 and 131000 and 127000
Perfused, 0 hrs
  %stability ([QST], % of control, Mean): 100.0%
  raw response, Mean: 236333
  raw response (Data Point): 245000 and 242000 and 222000
Perfused, 2 hrs
  %stability ([QST], % of control, Mean): 98.7%
  raw response, Mean: 233333
  raw response (Data Point): 232000 and 236000
Perfused, 6 hrs
  %stability ([QST], % of control, Mean): 97.6%
  raw response, Mean: 230667
  raw response (Data Point): 232000 and 230000
Perfused, 24 hrs
  %stability ([QST], % of control, Mean): 84.9%
  raw response, Mean: 200667
  raw response (Data Point): 203000 and 196000
